# Test results as given in patent publication US6734203B2, “Fused imidazolium derivatives” (priority 2000, dated 2004).
# Assay: Mouse single administration toxicity test
# Assay type: in vivo, Balb/C mice
# Conditions: 3 mg/kg single intravenous administration, observation period of 2 weeks
# Description: (Test methods) The compounds of the invention were administered by single intravenous administration to Balb/C mice, and the presence of mortal case during the observation period of 2 weeks was evaluated.
row,SMILES,presence of mortal case
1,"COCCN(C(C)=O)C1=C(NCc2ccncc2)C(=O)c2ccccc2C1=O [Example 37, N-(2-methoxyethyl)-N-[3-(4-pyridylmethyl)amino-1,4-dihydro-1,4-dioxo-2-naphthalenyl]acetamide]",Mortal case was not found
2,"COCC[n+]1c2c(n(Cc3ccnc(O)c3)c1C)C(=O)c1ccccc1C2=O [Example 185, 1-[(2-hydroxy-4-pyridyl)methyl]-3-(2-methoxyethyl)-2-methyl-4,9-dioxo-4,9-dihydro-1H-naphtho[2,3-d]imidazol-3-ium]",Mortal case was not found
3,"COCCn1c2c([n+](CCOC)c1C)C(=O)c1ccccc1C2=O [Example 148, 1,3-bis(2-methoxyethyl)-2-methyl-4,9-dioxo-4,9-dihydro-1H-naphtho[2,3-d]imidazol-3-ium]",Mortal case was not found
4,"COCC[n+]1c2c(n(Cc3cccnc3Cl)c1C)C(=O)c1ccccc1C2=O [Example 184, 1-[(2-chloro-3-pyridyl)methyl]-3-(2-methoxyethyl)-2-methyl-4,9-dioxo-4,9-dihydro-1H-naphtho[2,3-d]imidazol-3-ium]",Mortal case was not found
5,"COCCN(C(C)=O)C1=C(NCc2cccnc2)C(=O)c2ccccc2C1=O [Example 35, N-(2-methoxyethyl)-N-[3-(3-pyridylmethyl)amino-1,4-dihydro-1,4-dioxo-2-naphthalenyl]acetamide]",Mortal case was not found
6,"COCC[n+]1c2c(n(Cc3ccc(OC)nc3)c1C)C(=O)c1ccccc1C2=O [Example 186, 3-(2-methoxyethyl)-1-[(6-methoxy-3-pyridyl)methyl]-2-methyl-4,9-dioxo-4,9-dihydro-1H-naphtho[2,3-d]imidazol-3-ium]",Mortal case was not found
7,"COCC[n+]1c2c(n(Cc3ccnc(Cl)c3)c1C)C(=O)c1ccccc1C2=O [Example 192, 1-[(2-chloro-4-pyridyl)methyl]-3-(2-methoxyethyl)-2-methyl-4,9-dioxo-4,9-dihydro-1H-naphtho[2,3-d]imidazol-3-ium]",Mortal case was not found
8,"COCCNC1=C(N(Cc2ccncc2)C(C)=O)C(=O)c2ccccc2C1=O [Example 4, N-[3-(2-methoxyethyl)amino-1,4-dihydro-1,4-dioxo-2-naphthalenyl]-N-(4-pyridylmethyl)acetamide]",Mortal case was not found
9,"CCn1c2c([n+](CC)c1C)C(=O)c1ccccc1C2=O [KP-3, reference compound]",all of respective 2 cases died
10,"Cn1c2c([n+](C)c1CCl)C(=O)c1ccccc1C2=O [KP-1, reference compound]",all of respective 2 cases died
11,"COCC[n+]1c2c(n(Cc3cnccn3)c1C)C(=O)c1ccccc1C2=O [Example 154, 3-(2-methoxyethyl)-2-methyl-4,9-dioxo-1-(2-pyrazinylmethyl)-4,9-dihydro-1H-naphtho[2,3-d]imidazol-3-ium]",Mortal case was not found
12,"COCC[n+]1c2c(n(Cc3ccc(Cl)nc3)c1C)C(=O)c1ccccc1C2=O.[Cl-] [Example 9, 1-[(6-chloro-3-pyridyl)methyl]-3-(2-methoxyethyl)-2-methyl-4,9-dioxo-4,9-dihydro-1H-naphtho[2,3-d]imidazol-3-ium chloride]",Mortal case was not found
13,"COCC[n+]1c2c(n(Cc3ccc(Cl)cc3)c1C)C(=O)c1ccccc1C2=O [Example 197, 1-(4-chlorobenzyl)-3-(2-methoxyethyl)-2-methyl-4,9-dioxo-4,9-dihydro-1H-naphtho[2,3-d]imidazol-3-ium]",Mortal case was not found
14,"COCCn1c2c([n+](Cc3cccnc3)c1C)C(=O)c1ccccc1C2=O [Example 180, 1-(2-methoxyethyl)-2-methyl-4,9-dioxo-3-(3-pyridylmethyl)-4,9-dihydro-1H-naphtho[2,3-d]imidazol-3-ium]",Mortal case was not found
15,"COCCn1c2c([n+](Cc3ccncc3)c1C)C(=O)c1ccccc1C2=O.Cl.[Cl-] [Example 182, 1-(2-methoxyethyl)-2-methyl-3-(4-pyridylmethyl)-4,9-dihydro-4,9-dioxo-1H-naphtho[2,3-d]imidazol-3-ium chloride monohydrochloride]",Mortal case was not found
